The results in this text go back to patent US20250122225A1, “MASP-2 INHIBITORS AND METHODS OF USE” (Omeros Corporation, priority 2023, published 2025).

Where a name gives a salt, the structure may show the parent alone. Bounds are passed on as bounds.

By Ki is commonly meant a measure of affinity in units of concentration, obtained from inhibition or displacement. Higher therefore signals a looser hold on the target.

The target of one experiment is T1, human α-thrombin (Homo sapiens, UniProt P00734).
T1 construct: enzyme (human α-thrombin (BioPharm® Lab.)) in assay buffer; purchased BioPharm® Lab
In words: Enzymatic assay for thrombin (fluorogenic peptide substrate Boc-VPR-AMC). In kind it is biochemical. In outline:
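Human α-thrombin was run with the fluorogenic substrate Boc-VPR-AMC in 20 mM Hepes pH 7.4, 140 mM NaCl, 0.1% Tween 20 at room temperature for 20 min, then stopped with 0.1 M acetic acid. % activity was normalized to DMSO and no-enzyme controls. Under linear conditions IC50 equalled Ki, except for tight-binding inhibitors.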

The target of a further experiment is T2, MASP-2 (CCP1-CCP2-SP) (Homo sapiens, UniProt O00187).
T2 construct: 15 μL of Enzyme MASP-2 (CCP1-CCP2-SP) in Assay Buffer
T2 sequence (O00187 445-686 limits assumed): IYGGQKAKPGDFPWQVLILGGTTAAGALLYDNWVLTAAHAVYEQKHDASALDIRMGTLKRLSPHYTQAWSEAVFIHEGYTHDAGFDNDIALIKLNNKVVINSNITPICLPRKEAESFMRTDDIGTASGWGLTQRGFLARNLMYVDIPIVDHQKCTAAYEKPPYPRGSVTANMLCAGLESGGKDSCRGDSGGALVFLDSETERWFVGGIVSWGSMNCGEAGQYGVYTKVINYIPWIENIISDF
T2 sequence (O00187 287-444 partner limits assumed): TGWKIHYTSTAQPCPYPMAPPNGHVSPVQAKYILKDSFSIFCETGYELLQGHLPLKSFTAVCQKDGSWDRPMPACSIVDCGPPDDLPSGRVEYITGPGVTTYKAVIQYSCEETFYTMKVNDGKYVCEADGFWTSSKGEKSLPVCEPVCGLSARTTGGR
In words: Enzymatic assay for MASP-2 inhibitory activity (fluorogenic substrate). Type of experiment: biochemical. The procedure, abridged: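 MASP-2 (CCP1-CCP2-SP) cleaved a fluorogenic substrate based on the C2 cleavage site in 20 mM HEPES pH 7.4, 140 mM NaCl, 0.1% Tween 20 at room temperature. After 20 min the reaction was stopped with 0.1 M acetic acid and fluorescence read. % activity was normalized to DMSO-only and no-enzyme controls; IC50 taken as Ki.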

Regarding `COC(CNc1nc(Cl)c2n(c1=O)[C@H](C(=O)NCc1cc3cnccc3[nH]1)CC2)c1ccccc1` (stereo partly drawn) [Compound 244], the Ki is 500 to 2500 nM on human α-thrombin and under 500 nM on MASP-2 (CCP1-CCP2-SP).

Regarding `O=C(NCc1cc2cnccc2[nH]1)[C@@H]1CCc2c(Cl)nc(NCC3(c4ccccc4)CC3)c(=O)n21` [Compound 245], the Ki at human α-thrombin was 500 to 2500 nM; on MASP-2 (CCP1-CCP2-SP), under 500 nM.

With `O=C(NCc1cc2cnccc2[nH]1)[C@@H]1CCc2c(-c3cn[nH]c3)nc(NCCc3ccccc3)c(=O)n21` [Compound 246], the Ki on human α-thrombin was over 25000 nM; at MASP-2 (CCP1-CCP2-SP) it was under 500 nM.

Regarding `O=C(NCc1cc2cnccc2[nH]1)[C@@H]1CCc2c(C3CC3)nc(NCCc3ccccc3)c(=O)n21` [Compound 247], the figures for the Ki on human α-thrombin and on MASP-2 (CCP1-CCP2-SP) were 500 to 2500 nM and under 500 nM, respectively.

In the case of `O=C(NCc1cc2cnccc2[nH]1)[C@@H]1CCc2cnc(NCCc3ccccc3)c(=O)n21` [Compound 248], the Ki at human α-thrombin and on MASP-2 (CCP1-CCP2-SP) was under 500 nM each time.

For `O=C(NCc1cc2cnccc2[nH]1)[C@@H]1CCc2c(Cl)nc(NCCc3ccccc3)c(=O)n21` [Compound 249], the values for the Ki at human α-thrombin and on MASP-2 (CCP1-CCP2-SP) were 500 to 2500 nM and under 500 nM, respectively.

As to `N=C(N)c1ccc(CNC(=O)[C@@H]2CCc3c(Cl)nc(NCCc4ccccc4)c(=O)n32)cc1` [Compound 250], the Ki at human α-thrombin fell in the range of 2500 to 10000 nM; at MASP-2 (CCP1-CCP2-SP) it was 500 to 2500 nM.

Regarding `O=C(NCc1cc2cnccc2[nH]1)[C@@H]1CCc2c(Cl)nc(NCC3(c4ccccc4)COC3)c(=O)n21` [Compound 251], the figures for the Ki on human α-thrombin and on MASP-2 (CCP1-CCP2-SP) were 500 to 2500 nM and under 500 nM, respectively.

Consider `O=C(NCc1cc2c(s1)CNC2)[C@@H]1CCc2cnc(NCC3(Cc4ccccc4)CCCCC3)c(=O)n21` [Compound 252], for which the values for the inhibition constant (Ki) at human α-thrombin and at MASP-2 (CCP1-CCP2-SP) were 2500 to 10000 nM and under 500 nM, respectively.

As for `Cc1ccc(C)c([C@@H](C)Nc2ncc3n(c2=O)[C@H](C(=O)NCc2cc4c(s2)CNC4)CC3)c1` [Compound 253, (S)—N-((5,6-dihydro-4H-thieno[2,3-c]pyrrol-2-yl)methyl)-3-(((R)-1-(2,5-dimethylphenyl)ethyl)amino)-4-oxo-4,6,7,8-tetrahydropyrrolo[1,2-a]pyrazine-6-carboxamide], the Ki at human α-thrombin and at MASP-2 (CCP1-CCP2-SP) was under 500 nM throughout.

`O=C(NCc1cc2c(s1)CNC2)[C@@H]1CCc2cnc(N[C@@H]3CCc4ccccc43)c(=O)n21` [Compound 254, (S)-3-(((R)-2,3-dihydro-1H-inden-1-yl)amino)-N-((5,6-dihydro-4H-thieno[2,3-c]pyrrol-2-yl)methyl)-4-oxo-4,6,7,8-tetrahydropyrrolo[1,2-a]pyrazine-6-carboxamide]: the Ki was 500 to 2500 nM at human α-thrombin and under 500 nM at MASP-2 (CCP1-CCP2-SP).

For the compound `CC(C)[C@@H](Nc1ncc2n(c1=O)[C@H](C(=O)NCc1cc3c(s1)CNC3)CC2)c1ccccc1` [Compound 255], the inhibitory constant (Ki) on human α-thrombin and at MASP-2 (CCP1-CCP2-SP) was under 500 nM throughout.

For the compound `O=C(NCc1cc2c(s1)CNC2)[C@@H]1CCc2cnc(N[C@@H](c3ccccc3)C3CCC3)c(=O)n21` [Compound 256], the inhibitory constant (Ki) at human α-thrombin and on MASP-2 (CCP1-CCP2-SP) was under 500 nM each time.

Take `CCC[C@@H](Nc1ncc2n(c1=O)[C@H](C(=O)NCc1cc3c(s1)CNC3)CC2)c1ccccc1` [Compound 258]: the Ki on human α-thrombin and at MASP-2 (CCP1-CCP2-SP) was under 500 nM in each case.

For `O=C(NCc1cc2c(s1)CNC2)[C@@H]1CCc2cnc(N[C@@H]3CCc4ccc(-c5ccccc5)cc43)c(=O)n21` [Compound 260, (S)-N-((5,6-dihydro-4H-thieno[2,3-c]pyrrol-2-yl)methyl)-4-oxo-3-(((R)-6-phenyl-2,3-dihydro-1H-inden-1-yl)amino)-4,6,7,8-tetrahydropyrrolo[1,2-a]pyrazine-6-carboxamide trifluoroacetate], the values for the Ki on human α-thrombin and on MASP-2 (CCP1-CCP2-SP) were 2500 to 10000 nM and under 500 nM, respectively.
